Entries after “also recorded” stand apart in the source; their conditions may differ.
Tests used:
[1] = target: T1, CAMK2B (Homo sapiens, UniProt Q13554); experiment: DSF; format: binding
T1 construct: purchased in-house DSF panel (SGC Frankfurt)
Procedure: (§1) Recombinant protein kinase domains with a concentration of 2 μM were mixed with a 10 μM compound solution in DMSO, 20 mM HEPES, pH 7.5, and 500 mM NaCl. SYPRO Orange (5000×, Invitrogen) was added as a fluorescence probe (1 µl per mL). Subsequently, temperature-dependent protein unfolding profiles were measured, using the QuantStudio™ 5 realtime PCR machine (Thermo Fisher, Waltham, MA, USA). […] The temperature was raised with a step rate of 3 °C per minute. Data points were analyzed with the internal software (Thermal Shift SoftwareTM Version 1.4, Thermo Fisher) using the Boltzmann equation to determine the inflection point of the transition curve [56]. Differences in melting temperature are given as ΔTm values in °C. Measurements were performed in duplicates.

[2] = target: T2, DMPK1 (Homo sapiens, UniProt Q09013); experiment: DSF; format: binding
T2 construct: purchased in-house DSF panel (SGC Frankfurt)
T2 sequence (Q09013 1-629): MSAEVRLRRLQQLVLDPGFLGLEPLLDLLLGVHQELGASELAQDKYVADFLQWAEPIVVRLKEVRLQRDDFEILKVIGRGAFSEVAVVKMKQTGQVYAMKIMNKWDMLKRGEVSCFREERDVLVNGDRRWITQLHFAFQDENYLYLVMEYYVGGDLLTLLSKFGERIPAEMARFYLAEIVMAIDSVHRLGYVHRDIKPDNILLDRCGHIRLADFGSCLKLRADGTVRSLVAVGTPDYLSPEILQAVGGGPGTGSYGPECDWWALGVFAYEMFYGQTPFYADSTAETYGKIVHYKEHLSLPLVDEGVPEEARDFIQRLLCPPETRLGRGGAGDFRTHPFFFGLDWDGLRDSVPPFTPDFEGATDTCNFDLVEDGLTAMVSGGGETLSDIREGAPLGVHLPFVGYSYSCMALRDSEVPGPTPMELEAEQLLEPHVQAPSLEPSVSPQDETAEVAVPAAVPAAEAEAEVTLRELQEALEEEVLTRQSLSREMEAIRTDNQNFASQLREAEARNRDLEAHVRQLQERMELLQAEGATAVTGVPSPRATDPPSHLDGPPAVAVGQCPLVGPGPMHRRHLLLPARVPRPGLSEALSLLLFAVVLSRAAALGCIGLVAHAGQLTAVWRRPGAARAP
Procedure: as §1

[3] = target: T3, PIM3 (Homo sapiens, UniProt Q86V86); experiment: DSF; format: binding;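 note: compound tested at 10 µM with 2 µM protein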
T3 construct: purchased in-house DSF panel (SGC Frankfurt)
Procedure: as §1

[4] = system: HCT116-FUCCI cells; experiment: FUCCI cell cycle assay and viability assessment; format: cell-based; settings: for pyknosed nuclei / effect on the cell cycle (FUCCI): 24 h; for pyknosed nuclei: average; for effect on the cell cycle (FUCCI): 1, 5, 10 µM (milciclib 1, 10 µM); for effect on cell count: 1, 5, 10 µM vs DMSO 0.1 %; for cells compared to the control: after 72 h, vs DMSO 0.1 %
Procedure: This technology enables the detection of cell cycle states (G1, G2/M, or S phase) on a single cell level. Additionally, a viability assessment, as described by Tjaden et. al., was performed using Hoechst33342 as a nuclear marker. […] At 10 µM of the same compound, the pyknosed nuclei rate was even higher, on average 45% (Figure 9C). An increase in cells including a pyknosed nucleus indicate apoptotic cell death, due to typical morphological changes like DNA condensation. […] Milciclib is a published CDK2 inhibitor and was used as a reference compound [55]. […] At later time points, the G2/M phase arrest was no longer detectable (Table S7). This can be explained due to the increasing amount of apoptotic cells.
To validate the influence of the compounds on the cell cycle, a florescent ubiquitination-based cell cycle indicator (FUCCI) assay was performed as described previously. In Brief, HCT116-FUCCI cells, stably expressing the FUCCI system, introduced by the Sleeping Beauty transposon system, were seeded at a density of 1250 cells per well in a 384 well plate (Cell culture microplate, PS, f-bottom, µClear®, 781091, Greiner, Frickenhausen, Germany) in culture medium (50 µL per well) and stained additionally with 60 nM Hoechst33342 (Thermo Scientific). Fluorescence and cellular shape were measured before and after compound treatment for 72 h every 12 h using the CQ1 high-content confocal microscope (Yokogawa, Tokyo, Japan). Compounds were added directly to the cells at three different concentrations (1 µM, 5 µM and 10 µM). The following parameters were used for image acquisition: Ex 405 nm/Em 447/60 nm, 500ms, 50%; Ex 561 nm/Em 617/73 nm, 100 ms, 40%; Ex 488/Em 525/50 nm, 50 ms, 40%; Ex 640 nm/Em 685/40, 50 ms, 20 %; bright field, 300ms, 100% transmission, one centered field per well, 7 z stacks per well with 55 µm spacing. Analysis of images was performed using the CellPathfinder software (Yokogawa). The cell count was normalized against the cell count of cells treated with 0.1% DMSO. All normal gated cells were further classified in cells containing healthy, fragmented or pyknosed nuclei. […] Error bars show SEM of biological duplicates. All data can be found in Table S7.

[5] = target: T4, EPHA2 (Homo sapiens, UniProt P29317); experiment: DSF; format: binding
T4 construct: purchased in-house DSF panel (SGC Frankfurt)
T4 sequence (P29317 596-900): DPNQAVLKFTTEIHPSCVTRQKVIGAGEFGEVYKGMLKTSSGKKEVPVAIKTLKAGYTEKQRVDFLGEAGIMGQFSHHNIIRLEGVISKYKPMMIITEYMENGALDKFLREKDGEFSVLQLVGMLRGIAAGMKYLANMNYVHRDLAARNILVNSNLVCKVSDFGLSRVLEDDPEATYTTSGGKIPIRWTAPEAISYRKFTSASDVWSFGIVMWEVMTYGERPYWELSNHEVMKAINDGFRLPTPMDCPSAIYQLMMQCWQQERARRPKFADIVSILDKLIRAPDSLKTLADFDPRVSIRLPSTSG
Procedure: as §1

T1 sequence (Q13554 11-303): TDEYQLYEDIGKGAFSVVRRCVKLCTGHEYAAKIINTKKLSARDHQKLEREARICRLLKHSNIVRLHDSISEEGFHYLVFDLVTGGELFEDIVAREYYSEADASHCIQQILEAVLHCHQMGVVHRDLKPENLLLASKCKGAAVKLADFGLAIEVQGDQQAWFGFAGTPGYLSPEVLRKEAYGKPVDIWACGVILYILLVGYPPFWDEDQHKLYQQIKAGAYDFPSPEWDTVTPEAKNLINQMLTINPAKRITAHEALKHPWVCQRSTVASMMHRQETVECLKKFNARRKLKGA

Row | SMILES | ΔTm CAMK2B [1] | ΔTm DMPK1 [2] | ΔTm PIM3 [3] | pyknosed nuclei ([4]; 1 µM) | pyknosed nuclei ([4]; 10 µM) | effect on the cell cycle (FUCCI) [4] | effect on cell count [4] | cells compared to the control [4] | ΔTm EPHA2 [5]
1 | CC(C)(C)OC(=O)Nc1ccc(CNc2nccc(Nc3cc(C(=O)OC(C)(C)C)[nH]n3)n2)cc1 [43d, tert-butyl 3-((2-((4-((tert-butoxycarbonyl)amino)benzyl)amino)pyrimidin-4-yl)amino)-1H-pyrazole-5-carboxylate] | -0.5 °C | -0.1 °C | -1.6 °C | 10% | 45% | G2/M phase cell cycle arrest; also recorded: accumulation of cells in G2/M phases | decreased the cell count in a dose-dependent manner | less than 50% | 1.3 °C
2 | CC(C)OC(=O)c1cc(Nc2ccnc(NCc3ccc(NC(=O)OC(C)(C)C)cc3)n2)n[nH]1 [42d, isopropyl 3-((2-((4-((tert-butoxycarbonyl)amino)benzyl)amino)pyrimidin-4-yl)amino)-1H-pyrazole-5-carboxylate] | -1.2 °C | -0.1 °C | -1.1 °C | – | – | accumulation of cells in G2/M phases | – | – | 0.6 °C
3 | COC(=O)c1cc(Nc2ccnc(NCCOCCNC(=O)OC(C)(C)C)n2)[nH]n1 [21d, methyl 5-((2-((2-(2-((tert-butoxycarbonyl)amino)ethoxy)ethyl)amino)pyrimidin-4-yl)amino)-1H-pyrazole-3-carboxylate] | 0.2 °C | 0.5 °C | 0.0 °C | – | – | – | – | – | 0.2 °C
4 | N#CCc1ccc(Nc2nccc(Nc3cc(C4CC4)[nH]n3)n2)cc1 [compound 1, reference compound] | 4.4 °C | 3.2 °C | 3.8 °C | – | – | no effect on the cell cycle | – | – | 8.4 °C
5 | COC(=O)c1cc(Nc2ccnc(NCc3ccc(NC(=O)OC(C)(C)C)cc3)n2)[nH]n1 [21i, methyl 5-((2-((4-((tert-butoxycarbonyl)amino)benzyl)amino)pyrimidin-4-yl)amino)-1H-pyrazole-3-carboxylate] | 0.6 °C | 0.1 °C | -0.4 °C | – | – | accumulation of cells in G2/M phases | decreased the cell count | less than 50% | 0.4 °C
